Laboratory results as given in patent US20060229316A1, “Novel antiinfective compounds, process for their preparation and pharmaceutical compositions containing them” (priority 2002, published 2006).
In brackets after ≈: the same amount, converted by molar mass. Like-named read-outs stand apart in the source and are kept apart here.

Experiments:
[1] = test system: Methicillin resistant Staphylococus aureus 653SP; assay: MIC by microbroth dilution, first column headed SA (guide: MRSA); format: cell-based, Staphylococcus aureus; conditions: for MIC: Staphylococcus aureus, read-out: MIC (μg/ml) in vitro activity in gram positive organisms, SA
Source text: (§1) The pharmaceutically acceptable compounds of the present invention are useful antibacterial agents having a good spectrum of activity in vitro and against standard Gram-positive organisms, which are used to screen for activity against pathogenic bacteria. […] The antibacterial spectrum and potency of a particular compound may be determined in a standard test system. The activity is described in terms of the minimum inhibitory concentration (MIC) determined by microbroth dilution technique as per NCCLS standards.
(§2) The minimum inhibitory concentrations (MIC's) of the compounds for the microorganisms listed in Table A were determined by preparing working solution for each compound of concentration of 128 μg/ml after dissolving it in DMSO. Two-fold serial dilution of the above solution was prepared in duplicates, using Mueller Hinton Broth, in 96 well Tissue culture plate with cover flat bottom wells to give a final volume of […] and concentration of compound ranging from 64 μg/ml-0.12 μg/ml. 30 μg/ml of Standard suspension of each organism which was prepared with turbidity equivalent to the 1:10 diluted 0.5 McFarland standard with density 10^7 CFU/ml, was added to each well to get approximately a density of 10^5 CFU/ml. These 96-well Tissue culture plate containing the test samples and positive and negative controls, were incubated at 37° C. for 16-18 hrs. The wells were visually inspected for growth and were also read at 630 nm by Automated Microplate Reader [(EL800) Trinity biotech.] and the MIC's were recorded as the lowest concentration of drug which inhibits the growth of bacteria.
(§3) The compounds of the present invention have useful activity against a variety of organisms. The in vitro activity of compounds of the present invention can be assessed by standard testing procedures such as the determination of minimum inhibitory concentration (MIC) by standard “Microdilution method” as described elsewhere in the specification. The pharmacokinetic profiling of the compounds were also done according to the protocol described in this specification. The activities of representative compounds of the present invention are given below in the following table.
MRSA: Methicillin resistant Staphylococus aureus 653SP

[2] = test system: Staphylococcus epidermidis ATCC 12228; assay: MIC by microbroth dilution, SE; format: cell-based
Source text: as §1, §2, §3
SE: Staphylococcus epidermidis ATCC 12228

[3] = test system: Enterococcus faecalis ATCC 29212; assay: MIC by microbroth dilution, EF; format: cell-based
Source text: as §1, §2, §3
EF: Enterococcus faecalis ATCC 29212

[4] = test system: Staphylococus aureus ATCC 33591; assay: MIC by microbroth dilution, SA; format: cell-based, Staphylococcus aureus; conditions: for MIC: Staphylococcus aureus
Source text: as §1, §2, §3
SA: Staphylococus aureus ATCC 33591

[5] = SA, Mueller Hinton Broth, 37° C., 16-18 hrs
[6] = ATCC12228, Staphylococcus epidermidis ATCC 12228, Mueller Hinton Broth, 37° C., 16-18 hrs, read-out: MIC (μg/ml) in vitro activity in gram positive organisms, SE
[7] = ATCC29212, Enterococcus faecalis ATCC 29212, Mueller Hinton Broth, 37° C., 16-18 hrs, read-out: MIC (μg/ml) in vitro activity in gram positive organisms, EF
[8] = ATCC33591, Staphylococus aureus ATCC 33591, Mueller Hinton Broth, 37° C., 16-18 hrs, read-out: MIC (μg/ml) in vitro activity in gram positive organisms, SA
[9] = Staphylococcus epidermidis, ATCC12228, read-out: MIC (μg/ml) in vitro activity in gram positive organisms, SE
[10] = Enterococcus faecalis, ATCC29212, read-out: MIC (μg/ml) in vitro activity in gram positive organisms, EF
[11] = ATCC33591, read-out: MIC (μg/ml) in vitro activity in gram positive organisms, SA
[12] = Enterococcus faecalis ATCC 29212, Mueller Hinton Broth, 37° C., 16-18 hrs
[13] = Staphylococus aureus ATCC 33591, Mueller Hinton Broth, 37° C., 16-18 hrs

| Molecule | MIC [1, 5] [µg/mL] | MIC [2, 6] [µg/mL] | MIC [3, 7] [µg/mL] | MIC [4, 8] [µg/mL] | also measured |
| --- | --- | --- | --- | --- | --- |
| NC(=S)NC[C@H]1CN(c2ccc(N3CCN(C(=O)/C=C/c4cccs4)CC3)c(F)c2)C(=O)O1 [Compound 123, (3/-N-[3-(3-Fluoro-4-{4-(thiophen-2-yl)-acryloyl]-piperazineyl]-phenyl)-2-oxo-oxazolidin-5-yl-methyl]thiourea] | 1 (≈ 2.04 µM) | 0.5 (≈ 1.02 µM) | 0.25 (≈ 0.511 µM) | 1 (≈ 2.04 µM) | melting point: 154 to 157 °C |
| CC(=O)NC[C@H]1CN(c2ccc(N3CCN(C/C=C/c4ccccc4)CC3)c(F)c2)C(=O)O1 (stereo in doubt) |  |  |  |  | melting point: 134 to 136 °C |
| CC(=O)NC[C@H]1CN(c2ccc(N3CCN(C(=O)C=Cc4ccc(O)cc4)CC3)c(F)c2)C(=O)O1 [Compound 05, (S)-N-[3-(3-Fluoro-4-{4-[3-(4-hydroxyphenyl)-acryloyl]-piperazin-1-yl]-phenyl)-2-oxo-oxazolidin-5-ylmethyl]acetamide] |  |  |  |  | MIC [1]: 1 µg/mL (≈ 2.07 µM); MIC [2, 9]: 0.5 µg/mL (≈ 1.04 µM); MIC [3, 10]: 0.5 µg/mL (≈ 1.04 µM); MIC [4, 11]: 2 µg/mL (≈ 4.14 µM) |
| NC(=S)NC[C@H]1CN(c2ccc(N3CCN(C(=O)C=Cc4ccco4)CC3)c(F)c2)C(=O)O1 [Compound 127, (S)-N-[3-(3-Fluoro-4-{4-[3-(furan-2-yl)-acryloyl]-piperazin-1-yl]-phenyl)-2-oxo-oxazolidin-5-ylmethyl]thiourea] | 2 (≈ 4.22 µM) | 0.5 (≈ 1.06 µM) | 1 (≈ 2.11 µM) | 2 (≈ 4.22 µM) |  |
| CC(=O)NC[C@H]1CN(c2ccc(N3CCOCC3)c(F)c2)C(=O)O1 [Linezolid, reference compound] | 2 (≈ 5.93 µM) | 4 (≈ 11.9 µM) | 4 (≈ 11.9 µM) | 4 (≈ 11.9 µM) |  |
| CC(=S)NC[C@H]1CN(c2ccc(N3CCN(C(=O)C=Cc4ccco4)CC3)c(F)c2)C(=O)O1 [Compound 66, (S)-N-[3-(3-Fluoro-4-{4-[3-(furan-2-yl)-acryloyl]-piperazin-1-yl]-phenyl)-2-oxo-oxazolidin-5-ylmethyl]thioacetamide] | 1 (≈ 2.12 µM) | 0.5 (≈ 1.06 µM) | 0.5 (≈ 1.06 µM) | 0.5 (≈ 1.06 µM) |  |
| CC(=S)NC[C@H]1CN(c2ccc(N3CCN(C(=O)C=Cc4ccc(O)cc4)CC3)c(F)c2)C(=O)O1 [Compound 64, (S)-N-[3-(3-Fluoro-4-{4-[3-(4-hydroxyphenyl)-acryloyl]-piperazin-1-yl]-phenyl)-2-oxo-oxazolidin-5-ylmethyl]thioacetamide] |  |  |  |  | MIC [1]: 0.5 µg/mL (≈ 1 µM); MIC [2, 9]: 0.25 µg/mL (≈ 0.501 µM); MIC [3, 10]: 0.25 µg/mL (≈ 0.501 µM); MIC [4, 11]: 0.25 µg/mL (≈ 0.501 µM) |
| CC(=S)NC[C@H]1CN(c2ccc(N3CCN(C(=O)C=Cc4cccs4)CC3)c(F)c2)C(=O)O1 [Compound 70, (S)-N-[3-(3-Fluoro-4-{4-[3-(thiophen-2-yl)-acryloyl]-piperazinyl]-phenyl)-2-oxo-oxazolidin-5-ylmethyl]thioacetamide] | 1 (≈ 2.05 µM) | 2 (≈ 4.09 µM) | 0.5 (≈ 1.02 µM) | 0.5 (≈ 1.02 µM) |  |
| CC(=O)NC[C@H]1CN(c2ccc(N3CCN(C(=O)/C=C/c4cccs4)CC3)c(F)c2)C(=O)O1 [Compound 01] | 0.5 (≈ 1.06 µM) | 1 (≈ 2.12 µM) | 1 (≈ 2.12 µM) |  | melting point: 223 to 225 °C |
| (S)-N-[3-{4-(4-(3-Benzo[1,3]-dioxol-5-yl-acryloyl)-piperazin-1-yl}-3-fluorophenyl]-2-oxo-oxazolidin-5-yl methyl thiourea [Compound 125] |  |  |  |  | MIC (μg/ml) in vitro activity in gram positive organisms, SA [1, 5]: 1 µg/mL; MIC (μg/ml) in vitro activity in gram positive organisms, EF [3, 12]: 0.5 µg/mL; MIC (μg/ml) in vitro activity in gram positive organisms, SA [4, 13]: 4 µg/mL |
| NC(=S)NC[C@H]1CN(c2ccc(N3CCN(C(=O)C=Cc4c[nH]c5ccccc45)CC3)c(F)c2)C(=O)O1 [Compound 126, (S)-N-[3-(3-Fluoro-4-{4-[3-(1H-indol-3-yl)-acryloyl]-piperazin-1-yl]-phenyl)-2-oxo-oxazolidin-5-ylmethyl]thiourea] | 1 (≈ 1.91 µM) | 0.5 (≈ 0.957 µM) | 1 (≈ 1.91 µM) | 1 (≈ 1.91 µM) |  |
| CC(=O)NC[C@H]1CN(c2ccc(N3CCN(C(=O)CO)CC3)c(F)c2)C(=O)O1 [Eperzolid, reference compound] |  |  |  |  | MIC (μg/ml) in vitro activity in gram positive organisms, SA [1, 5]: 2 µg/mL (≈ 5.07 µM); MIC (μg/ml) in vitro activity in gram positive organisms, EF [3, 12]: 2 µg/mL (≈ 5.07 µM); MIC (μg/ml) in vitro activity in gram positive organisms, SA [4, 13]: 4 µg/mL (≈ 10.1 µM) |
| (S)-N-[3-(3-Fluoro-4-{4-[3-(4-hydroxyphenyl)-acryloyl]-piperazin-1-yl]-phenyl)-2-oxo-oxazolidin-5-yl methyl thiourea [Compound 124] |  |  |  |  | MIC (μg/ml) in vitro activity in gram positive organisms, SA [1, 5]: 1 µg/mL; MIC (μg/ml) in vitro activity in gram positive organisms, EF [3, 12]: 1 µg/mL; MIC (μg/ml) in vitro activity in gram positive organisms, SA [4, 13]: 1 µg/mL |
